Assay results reported in patent US5968980A, “1,3-dialkylurea derivative” (Santen Pharmaceutical Co., Ltd., priority 1994, dated 1999).

These compounds were tested against T1, endopeptidase 24.11 (Rattus norvegicus, UniProt P07861) (assay: inhibition of endopeptidase 24.11 activity (DAGNPG cleavage, fluorescence, rat kidney enzyme preparation)). Settings: DAGNPG 50 μM, 37° C., 30 minutes, pH 7.4, rat kidney enzyme preparation; read-out: IC50 (concentration required to inhibit endopeptidase 24.11 by 50%).
T1 construct: A kidney was excised from a Wistar rat; from tissue; host or cells: Wistar rat kidney, crude membrane pellet suspended in HEPES buffer
T1 sequence (P07861 1-750): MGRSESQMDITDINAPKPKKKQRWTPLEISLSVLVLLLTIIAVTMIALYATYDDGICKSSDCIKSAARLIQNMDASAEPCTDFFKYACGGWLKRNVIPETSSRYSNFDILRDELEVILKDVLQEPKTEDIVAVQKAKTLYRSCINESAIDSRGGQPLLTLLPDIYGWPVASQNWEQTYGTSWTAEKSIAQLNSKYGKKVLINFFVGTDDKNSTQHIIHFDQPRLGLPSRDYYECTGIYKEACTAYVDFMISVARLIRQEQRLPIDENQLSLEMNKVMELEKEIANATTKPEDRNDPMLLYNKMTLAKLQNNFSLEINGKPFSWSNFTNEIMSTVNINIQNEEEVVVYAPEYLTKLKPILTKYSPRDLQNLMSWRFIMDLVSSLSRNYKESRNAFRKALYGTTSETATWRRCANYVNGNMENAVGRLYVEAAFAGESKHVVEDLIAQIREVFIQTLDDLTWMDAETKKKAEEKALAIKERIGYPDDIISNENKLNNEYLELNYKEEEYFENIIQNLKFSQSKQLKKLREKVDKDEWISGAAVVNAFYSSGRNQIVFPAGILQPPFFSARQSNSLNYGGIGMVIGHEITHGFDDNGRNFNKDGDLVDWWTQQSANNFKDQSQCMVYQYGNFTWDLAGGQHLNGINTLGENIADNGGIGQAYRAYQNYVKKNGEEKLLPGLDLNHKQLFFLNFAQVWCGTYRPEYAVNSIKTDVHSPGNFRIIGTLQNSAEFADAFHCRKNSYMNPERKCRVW
Format: biochemical
Source text: As a method for measuring endopeptidase 24.11 activity, Florentin et al. had reported a method for measuring the enzyme activity by a degree of cleavage of a peptide bond between glycine and p-nitrophenylalanine using N-dansyl-D-alanyl-glycyl-p-nitrophenylalanyl-glycine (DAGNPG) as a substrate (Anal. Biochem., 141, 62-69 (1984)). An effect of the present compounds on endopeptidase 24.11 was examined according to the method described in the literature.
An enzyme preparation used in this pharmacological test was prepared by extracting from a rat kidney by the following method according to the method of Malfloy et al. (J. Biol. Chem., 259, 14365-14370 (1984)).
A kidney was excised from a Wistar rat. The kidney was homogenized in Tris-hydrochloric acid buffer (5 mM, pH 7.4, containing 125 mM D-mannitol and 12 mM magnesium chloride). The homogenate was centrifuged at low speed (1,000×g) to give a supernatant. The supernatant was ultracentrifuged ([…]) for 120 minutes. The resulting pellet was suspended in Tris-hydrochloric acid buffer (2.5 mM, pH 7.4, containing 62.5 mM D-mannitol and 6 mM magnesium chloride). The suspension was centrifuged at low speed and then ultracentrifuged again. The resulting pellet was suspended in HEPES buffer (5 mM, pH 7.4) to give the enzyme preparation.
In order to examine the effect of the present compounds on the enzyme preparation, reactions were performed under the following condition using mixed solutions consisting of the composition shown in Table 1.
Enzyme preparation 0.3-0.5 μg protein
The above-mentioned solution (150 μl) was incubated at 37° C. for 30 minutes and then boiled at 100° C. for five minutes. To the solution was added 1.35 ml of Tris-hydrochloric acid buffer (50 mM, pH 7.4). The mixture was centrifuged at moderate speed (5,000×g) for five minutes to give a supernatant. Fluorescence intensity of the supernatant (excitation at 342 nm of wave length and emission at 562 nm) was measured.
The degree of the inhibitory effect of each test compound on the enzyme preparation is expressed by the inhibition rate calculated by the following equation. [formula]
A: fluorescence intensity of the sample in the absence of the test compound
B: fluorescence intensity of the sample in the presence of the test compound
`CC(C)CN(CC(CCc1ccccc1)C(=O)O)C(=O)N[C@@H](Cc1ccc(-c2ccccc2)cc1)C(=O)O` (mixture of isomers) [Compound No. 5-6, (2S)-3-(4-Biphenylyl)-2-[3-[(2RS)-2-carboxy-4-phenylbutyl]-3-isobutylureido]propionic acid] gave an IC50 of 0.55 nM. Work on `CC(C)CCC(CN(CC(C)C)C(=O)N[C@@H](Cc1ccc(-c2ccccc2)cc1)C(=O)O)C(=O)O` (mixture of isomers) [Compound No. 7-3, (2S)-3-(4-Biphenylyl)-2-[3-[(2RS)-2-carboxy-5-methylhexyl]-3-isobutylureido]propionic acid] yielded an IC50 of 4 nM. Compound `CC(C)CN(CC(CCc1ccccc1)C(=O)O)C(=O)N[C@@H](Cc1ccc2ccccc2c1)C(=O)O` (mixture of isomers) [Compound No. 7-6, (2S)-2-[3-[(2RS)-2-Carboxy-4-phenylbutyl]-3-isobutylureido]-3-(2-naphthyl)propionic acid] has an IC50 of 3.1 nM. With `CC(C)CN(CC(OCc1ccccc1)C(=O)O)C(=O)N[C@@H](Cc1ccc(-c2ccccc2)cc1)C(=O)O` (single isomer, unassigned) [Compound No. 8-1, (2S)-2-[3-[(2S or 2R)-2-Benzyloxy-2-carboxyethyl]-3-isobutylureido]-3-(4-biphenylyl)propionic acid] the IC50 was 0.93 nM. `CC(C)CN(CC(CCc1ccccc1)C(=O)O)C(=O)N[C@@H](Cc1ccc(-c2ccccc2)cc1)C(=O)O` (single isomer, unassigned) [Compound No. 9-1, (2S)-3-(4-Biphenylyl)-2-[3-[(2S or 2R)-2-carboxy-4-phenylbutyl]-3-isobutylureido]propionic acid] showed an IC50 of 0.58 nM. For `CC(C)CN(CC(CCc1ccccc1)C(=O)NO)C(=O)N[C@@H](Cc1ccc(-c2ccccc2)cc1)C(=O)O` (single isomer, unassigned) [Compound No. 10-1, (2S)-3-(4-Biphenylyl)-2-[3-[(2S or 2R)-2-hydroxycarbamoyl-4-phenylbutyl]-3-isobutylureido]propionic acid], the IC50 was 2.1 nM. `CC(C)CN(CCC(=O)O)C(=O)N[C@@H](Cc1ccc(-c2ccccc2)cc1)C(=O)O` [Compound No. 5-1, (2S)-3-(4-Biphenylyl)-2-[3-(2-carboxyethyl)-3-isobutylureido]propionic acid] showed an IC50 of 1.3 nM. In the case of `CC(C)CN(CCC(=O)O)C(=O)N[C@@H](Cc1ccc2ccccc2c1)C(=O)O` [Compound No. 5-21, (2S)-2-[3-(2-Carboxyethyl)-3-isobutylureido]-3-(2-naphthyl)propionic acid], the IC50 is reported as 9.3 nM.
